Data published in patent publication US20190119298A1, “FUSED 3-PHENYLTETRAMIC ACID DERIVATIVES HAVING HERBICIDAL ACTION” (Bayer CropScience Aktiengesellschaft, priority 2016, published 2019).

Key:
Format in all cases: in vivo
Lolium multiflorum [1] = test: Pre-emergence herbicidal effect; details: 320 g/ha, scored visually after 3 weeks vs untreated controls, 100% = plants have died
Source text: (§1) Seeds of monocotyledonous and dicotyledonous weed plants and crop plants are laid out in sandy loam soil in wood-fibre pots and covered with soil. The compounds of the invention, formulated in the form of wettable powders (WP) or as emulsion concentrates (EC), are then applied to the surface of the covering soil as aqueous suspension or emulsion at a water application rate equating to 600 to 800 L/ha with addition of 0.2% wetting agent. After the treatment, the pots are placed in a greenhouse and kept under good growth conditions for the trial plants. The damage to the test plants is scored visually after a test period of 3 weeks by comparison with untreated controls (herbicidal activity in percent (%): 100% activity=the plants have died, 0% activity=like control plants). LOLMU: Lolium multiflorum

Avena fatua [2] = test: Post-emergence herbicidal effect; details: one-leaf stage, 320 g/ha, assessed visually after about 3 weeks, 100% = plants have died
Protocol: (§2) AVEFA: Avena fatua Seeds of monocotyledonous and dicotyledonous weed and crop plants are laid out in sandy loam soil in wood-fibre pots, covered with soil and cultivated in a greenhouse under good growth conditions. 2 to 3 weeks after sowing, the test plants are treated at the one-leaf stage. The compounds of the invention, formulated in the form of wettable powders (WP) or as emulsion concentrates (EC), are then sprayed onto the green parts of the plants as aqueous suspension or emulsion at a water application rate equating to 600 to 800 L/ha with addition of 0.2% wetting agent. After the test plants have been left to stand in the greenhouse under optimal growth conditions for about 3 weeks, the action of the preparations is assessed visually in comparison to untreated controls (herbicidal action in percent (%): 100% activity=the plants have died, 0% activity=like control plants).

Avena fatua [3] = test: Pre-emergence herbicidal effect; details: 320 g/ha, scored visually after 3 weeks vs untreated controls, 100% = plants have died
Source text: as §1, with “AVEFA: Avena fatua” for “LOLMU: Lolium multiflorum”

Alopecurus myosuroides [4] = test: Post-emergence herbicidal effect; details: one-leaf stage, 320 g/ha, assessed visually after about 3 weeks, 100% = plants have died
Protocol: as §2, with “ALOMY: Alopecurus myosuroides” for “AVEFA: Avena fatua”

Alopecurus myosuroides [5] = test: Pre-emergence herbicidal effect; details: 320 g/ha, scored visually after 3 weeks vs untreated controls, 100% = plants have died
Source text: as §1, with “ALOMY: Alopecurus myosuroides” for “LOLMU: Lolium multiflorum”

Echinochloa crus-galli [6] = test: Post-emergence herbicidal effect; details: one-leaf stage, 320 g/ha, assessed visually after about 3 weeks, 100% = plants have died
Protocol: as §2, with “ECHCG: Echinochloa crus-galli” for “AVEFA: Avena fatua”

Setaria viridis [7] = test: Post-emergence herbicidal effect; details: one-leaf stage, 320 g/ha, assessed visually after about 3 weeks, 100% = plants have died
Protocol: as §2, with “SETVI: Setaria viridis” for “AVEFA: Avena fatua”

Echinochloa crus-galli [8] = test: Pre-emergence herbicidal effect; details: 320 g/ha, scored visually after 3 weeks vs untreated controls, 100% = plants have died
Source text: as §1, with “ECHCG: Echinochloa crus-galli” for “LOLMU: Lolium multiflorum”

Setaria viridis [9] = test: Pre-emergence herbicidal effect; details: 320 g/ha, scored visually after 3 weeks vs untreated controls, 100% = plants have died
Source text: as §1, with “SETVI: Setaria viridis” for “LOLMU: Lolium multiflorum”

Lolium multiflorum [10] = test: Post-emergence herbicidal effect; details: one-leaf stage, 320 g/ha, assessed visually after about 3 weeks, 100% = plants have died
Protocol: as §2, with “LOLMU: Lolium multiflorum” for “AVEFA: Avena fatua”

| SMILES | Pre-emergence action LOLMU (herbicidal activity in percent) (Lolium multiflorum [1]) [%] | Post-emergence effectiveness AVEFA (herbicidal action in percent) (Avena fatua [2]) [%] | Pre-emergence action AVEFA (herbicidal activity in percent) (Avena fatua [3]) [%] | Post-emergence effectiveness ALOMY (herbicidal action in percent) (Alopecurus myosuroides [4]) [%] | Pre-emergence action ALOMY (herbicidal activity in percent) (Alopecurus myosuroides [5]) [%] | Post-emergence effectiveness ECHCG (herbicidal action in percent) (Echinochloa crus-galli [6]) [%] | Post-emergence effectiveness SETVI (herbicidal action in percent) (Setaria viridis [7]) [%] | Pre-emergence action ECHCG (herbicidal activity in percent) (Echinochloa crus-galli [8]) [%] | Pre-emergence action SETVI (herbicidal activity in percent) (Setaria viridis [9]) [%] | Post-emergence effectiveness LOLMU (herbicidal action in percent) (Lolium multiflorum [10]) [%] |
| --- | --- | --- | --- | --- | --- | --- | --- | --- | --- | --- |
| CCOC(=O)OC1=C(c2c(C)cccc2CC)C(=O)N2CCOCCC12 (centres unmarked) [Ib-1-13] | 100 | 90 | 90 | 100 | 80 | 100 | 100 | 100 | 100 | 100 |
| Cc1cc(C)c(C2=C(O)C3COCCCN3C2=O)c(C)c1 (racemic) [Ia-2-1] | 100 | 100 |  | 100 | 80 | 100 | 100 |  |  | 100 |
| CCc1cc(C)cc(C)c1C1=C(O)C2=CCOCCN2C1=O [Ia-3-2] |  | 100 |  |  |  | 100 |  |  |  |  |
| CCc1cc(Cl)cc(OC)c1C1=C(OC(=O)C(C)(C)C)C2=CCOCCN2C1=O [Ib-3-10] | 100 | 100 |  | 100 | 90 | 100 | 100 | 100 | 100 | 100 |
| CCc1cc(C)cc(C)c1C1=C(OC(C)=O)C2=CCOCCN2C1=O [Ib-3-4] |  | 80 |  | 90 |  | 90 | 100 |  |  | 80 |
| CCc1cccc(C)c1C1=C(OC(C)=O)C2CCOCCN2C1=O (centres unmarked) [Ib-1-15] | 100 | 100 |  | 100 | 100 | 100 | 100 | 100 | 100 | 100 |
| Cc1cc(C)c(C2=C(O)C3=CCOCCN3C2=O)c(C)c1 [Ia-3-1] |  | 80 |  |  |  | 90 |  |  |  |  |
| CCOC(=O)OC1=C(c2c(CC)cc(Cl)cc2OC)C(=O)N2CCOCCC12 (centres unmarked) [Ib-1-17] |  | 100 | 100 | 100 | 100 | 100 | 100 | 100 | 100 | 100 |
